Source: patent publication US20130065763A1, “Biocide Compositions Comprising Isoamyl Lactate” (priority 2010, published 2013)

Assay: Solubility in water of each lactate
Assay type: physicochemical
Conditions: for Solubility in Water: solubility of the lactate solvent in water, yes = water soluble
Procedure: Solubility of several pesticides was measured in Isoamyl lactate versus other lactates. In addition the solubility in water of each lactate has been checked.

Solubility in Water | Water solubility (statement in description) | Structure (SMILES)
<1% | not water soluble | CC(C)CCOC(=O)C(C)O (stereo not shown) [Example 6, Isoamyl lactate]
yes | – | CC(C)OC(=O)C(C)O (stereo not shown) [Example C4, Isopropyl lactate]
yes | – | CCCCOC(=O)C(C)O (stereo not shown) [Example C3, Butyl lactate]
